Assay [1] addresses Female germline-specific tumor suppressor gld-1 (Caenorhabditis elegans, UniProt Q17339). In words: blockers of GLD-1/TGE RNA complex formation – biochemical, fluorescence polarization, C. elegans, dose response (AID 2802).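 Further: fluorescence polarization of labeled TGE RNA bound by purified gld-1 protein.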
A further assay deals with Protein Rev (Human immunodeficiency virus type 1 group M subtype B (isolate HXB2)(HIV-1), UniProt P04618). Put plainly: blockers of HIV Rev/RRE RNA complex – biochemical, fluorescence polarization, HIV-1, dose response (AID 434976). Set-up: species or system Human immunodeficiency virus 1. On the technique in general: Polarisation of emitted light reports the rotation of a fluorescent probe.

Assay [2] concerns the target T1, Polyadenylate-binding protein 1 (Homo sapiens, UniProt P11940). Put plainly: MLLE binding blockers, Cy5 peptide tracer – biochemical, fluorescence polarization, Cy5-PAM2 peptide, secondary, miRNA deadenylation inhibitor project, dose response (AID 602260). Conditions: read-out: IC50_Mean. It counts as functional.
Assay [3] addresses T1, Polyadenylate-binding protein 1. Put plainly: MLLE domain peptide-binding blockers, IC50 – biochemical, fluorescence polarization, FITC-PAM2 peptide, dose response (AID 602259). It counts as functional. Particulars: read-out: IC50_Mean.
Another assay deals with Large T antigen (Simian virus 40, UniProt P03070). It counts as functional, Betapolyomavirus macacae.
Assay [4] addresses FAD-linked sulfhydryl oxidase ALR (Homo sapiens, UniProt P55789). In words: ALR-catalysed DTT oxidation blockers – biochemical, H2O2 detection, luminescence, cherry-pick, dose response (AID 493248).
The test system of assay [5] is HEK293. Put plainly: NOD2 signaling inhibitors in MDP-stimulated cells, cell-based, uHTS, luminescence (AID 2001). It counts as functional. Conditions: Homo sapiens.
Assay [6] deals with HEK293. Put plainly: cells. It counts as functional, cell-based. Particulars: Homo sapiens.
Assay [7] deals with HEK293. In words: cells. It counts as functional, cell-based. Conditions: Homo sapiens. This is another data set of the same source.
Assay [8] deals with HEK293. Put plainly: inhibition of NOD1-driven NF-kB reporter – cell-based, luminescence, uHTS, primary screen (AID 1578). It counts as functional. Conditions: Homo sapiens.
Assay [9] concerns HEK293. Put plainly: cells. It counts as functional, cell-based. Conditions: Homo sapiens. This is another data set of the same source.
Assay [10] addresses Nucleotide-binding oligomerization domain-containing protein 2 (Homo sapiens, UniProt Q9HC29). In words: inhibition of NOD2-driven NF-kB reporter – cell-based, luminescence, uHTS, HEK293 (AID 1566). It counts as functional.
The target in the next assay is Hexokinase (Trypanosoma brucei, UniProt Q38C41). Put plainly: Confirmation assay for inhibitors of Trypanosoma brucei hexokinase 1-Analogue-first series. [Related pubchem assays (depositor defined):AID1430, AID1632, AID2516, AID2560, AID2579, AID2600, AID449725, AID492951]. It counts as functional.
Another assay addresses T2, Coagulation factor XII (Homo sapiens, UniProt P00748).
T2 sequence (P00748 whole entry): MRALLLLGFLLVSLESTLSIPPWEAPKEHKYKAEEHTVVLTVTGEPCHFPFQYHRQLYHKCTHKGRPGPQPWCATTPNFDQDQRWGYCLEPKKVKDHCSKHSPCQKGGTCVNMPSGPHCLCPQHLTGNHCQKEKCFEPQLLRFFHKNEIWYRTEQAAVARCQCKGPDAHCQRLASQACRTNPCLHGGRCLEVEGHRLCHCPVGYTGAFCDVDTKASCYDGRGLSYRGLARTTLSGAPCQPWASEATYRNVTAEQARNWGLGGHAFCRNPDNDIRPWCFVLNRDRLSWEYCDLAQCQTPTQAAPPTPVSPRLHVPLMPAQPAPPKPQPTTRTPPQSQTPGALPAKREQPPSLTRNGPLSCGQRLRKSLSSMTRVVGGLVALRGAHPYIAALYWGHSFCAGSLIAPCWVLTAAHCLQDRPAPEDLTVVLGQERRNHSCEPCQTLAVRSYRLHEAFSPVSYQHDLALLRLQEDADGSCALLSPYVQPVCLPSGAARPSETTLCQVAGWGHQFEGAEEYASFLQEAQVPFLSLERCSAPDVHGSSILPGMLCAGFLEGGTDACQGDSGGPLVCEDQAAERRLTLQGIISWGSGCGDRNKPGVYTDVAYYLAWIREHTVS
Put plainly: Factor XIIa Dose Response Confirmation from Single Well HTS. [Related pubchem assays (depositor defined):AID701]. It counts as functional.

Assay [11] concerns the target G-protein coupled receptor 55 (Homo sapiens, UniProt Q9Y2T6). Put plainly: selective activators of receptor GPR55 – imaging, U2OS cells, beta-arrestin-GFP redistribution, primary screen (AID 1961). It counts as functional.
Assay [12] addresses T3, Voltage-gated N-type calcium channel alpha-1B subunit/Amyloid beta A4 precursor protein-binding family A member 1 (Homo sapiens, UniProt Q00975+Q02410). Put plainly: disruptors of Mint-PDZ/N-type channel peptide interaction – biochemical, HTRF, set 2, SAR follow-up (AID 434980). It counts as functional. A general note: Time-resolved FRET reads energy transfer from a long-lived donor to a nearby acceptor.

A short description of assay [13]: NIH3T3 cell viability loss – ATP luminescence, mouse fibroblasts, counter-screen, dose response (AID 2010).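 Further: cells exposed to compound for about 90 hours before reading.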 It counts as functional, cell-based. On the technique in general: Counterscreens check selectivity or assay interference.
Assay [14] is described as follows: Trypanosoma cruzi growth suppression in host cells – NIH3T3 host cells, beta-gal luminescence, confirmation (AID 2044).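 Further: intracellular parasites grown in NIH/3T3 mouse fibroblasts as host cells; luminescent beta-galactosidase reporter signal from transgenic T. cruzi replicating inside host cells; inhibitors lower the luminescence signal.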 It counts as functional, cell-based.
The target in the next assay is Bcl-2-like protein 10 (Homo sapiens, UniProt Q9HD36). Put plainly: Bcl-B/TR3 peptide binding disruption – biochemical, fluorescence polarization, FITC-TR3 peptide, selectivity assay for Bfl-1 inhibitor project, primary screen (AID 748).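 Further: fluorescence polarization from a fluorescein-labelled TR3 peptide binding purified Bcl-B.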
In assay [15] the target is Neurotensin receptor type 1 (Homo sapiens, UniProt P30989). It counts as functional.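 Further: Image-based confirmatory dose-response assay measuring agonist activity at NTR1; NTR1-expressing U2OS osteosarcoma cells imaged for beta-arrestin GFP spot formation; agonist potency where compounds increase beta-arrestin recruitment.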
Assay [16] can be described thus: Luminescence-based cell-based high throughput dose response assay to identify activators of the DAF-12 from the parasite S. stercoralis (ssDAF-12). It counts as functional.
For assay [17], the target named is T4, Microphthalmia-associated transcription factor (Homo sapiens, UniProt O75030).
T4 sequence (O75030 whole entry): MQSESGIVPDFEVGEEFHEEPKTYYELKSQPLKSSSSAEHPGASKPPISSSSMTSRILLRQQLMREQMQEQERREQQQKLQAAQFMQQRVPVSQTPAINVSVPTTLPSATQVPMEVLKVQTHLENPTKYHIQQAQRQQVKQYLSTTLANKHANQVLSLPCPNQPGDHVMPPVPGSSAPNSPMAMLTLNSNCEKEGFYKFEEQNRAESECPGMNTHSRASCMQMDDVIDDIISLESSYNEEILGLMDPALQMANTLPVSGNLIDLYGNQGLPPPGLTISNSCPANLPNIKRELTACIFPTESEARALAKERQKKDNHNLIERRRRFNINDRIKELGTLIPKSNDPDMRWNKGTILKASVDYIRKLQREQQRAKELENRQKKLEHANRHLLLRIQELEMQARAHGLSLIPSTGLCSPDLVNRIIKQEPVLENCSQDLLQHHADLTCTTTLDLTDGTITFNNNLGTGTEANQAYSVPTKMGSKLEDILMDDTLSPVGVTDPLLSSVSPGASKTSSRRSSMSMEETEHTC
Put plainly: reducers of TRPM1 reporter luminescence, concentration series – cell-based, SK-MEL-5, cherry-picked, set 3, MITF inhibitor project, dose response (AID 493073).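 Further: SK-MEL-5 melanoma cells with luciferase driven by the MITF target TRPM1 promoter.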 It counts as functional.

Assay [18] can be described thus: Fluorescence-based cell-based high throughput dose response assay for inhibitors of the interaction of nucleotide-binding oligomerization domain containing 2 (NOD2) and the receptor-interacting serine-threonine kinase 2 (RIPK2). It counts as functional, Homo sapiens. Conditions: Homo sapiens.
The target of assay [19] is Acyl-homoserine lactone acylase PvdQ (Pseudomonas aeruginosa (strain LESB58), UniProt Q9I194). In words: PvdQ acylase enzyme activity blockers – biochemical, fluorescence, plate reader and imaging, cherry-picks, dose response (AID 493231).
Assay [20] concerns the target T3, Voltage-gated N-type calcium channel alpha-1B subunit/Amyloid beta A4 precursor protein-binding family A member 1. It counts as protein assay.
Assay [21] deals with Induced myeloid leukemia cell differentiation protein Mcl-1 (Homo sapiens, UniProt Q07820). It counts as functional.
Assay [22] has as its target T5, Carboxy-terminal domain RNA polymerase II polypeptide A small phosphatase 1 (Homo sapiens, UniProt Q9GZU7).
T5 sequence (Q9GZU7 whole entry): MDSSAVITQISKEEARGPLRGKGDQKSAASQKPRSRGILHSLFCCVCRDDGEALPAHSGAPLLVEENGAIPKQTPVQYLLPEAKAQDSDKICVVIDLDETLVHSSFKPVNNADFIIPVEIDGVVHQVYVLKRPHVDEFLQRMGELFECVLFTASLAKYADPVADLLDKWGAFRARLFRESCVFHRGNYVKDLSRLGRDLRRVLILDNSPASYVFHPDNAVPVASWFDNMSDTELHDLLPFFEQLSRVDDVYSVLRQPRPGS
Put plainly: CTDSP1 inhibitors, concentration-response, biochemical, absorbance readout, ultra-high-throughput screen actives (AID 540297). It counts as functional.

The target in assay [23] is T3, Voltage-gated N-type calcium channel alpha-1B subunit/Amyloid beta A4 precursor protein-binding family A member 1. It counts as protein assay. This is another data set of the same source.
The target in assay [24] is T6, Tyrosine-protein phosphatase non-receptor type 7 (Homo sapiens, UniProt P35236).
T6 sequence (P35236 whole entry): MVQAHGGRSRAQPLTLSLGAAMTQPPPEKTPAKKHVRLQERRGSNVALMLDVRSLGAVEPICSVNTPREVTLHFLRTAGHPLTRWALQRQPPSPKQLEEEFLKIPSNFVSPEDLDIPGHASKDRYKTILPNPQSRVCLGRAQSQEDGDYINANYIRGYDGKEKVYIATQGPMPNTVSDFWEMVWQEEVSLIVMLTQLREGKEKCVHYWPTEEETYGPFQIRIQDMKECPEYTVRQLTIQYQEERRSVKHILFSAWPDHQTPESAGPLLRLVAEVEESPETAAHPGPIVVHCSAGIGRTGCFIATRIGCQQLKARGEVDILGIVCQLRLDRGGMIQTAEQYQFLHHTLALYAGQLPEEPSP
Put plainly: inhibition of hematopoietic tyrosine phosphatase HePTP – biochemical, set 2, SAR follow-up (AID 449736). It counts as functional.

SMILES strings stand for the structures. Calls of active or inactive are those of the source. Where only a bound is given, the exact number is not on record here.

T3 sequence (Q00975 whole entry): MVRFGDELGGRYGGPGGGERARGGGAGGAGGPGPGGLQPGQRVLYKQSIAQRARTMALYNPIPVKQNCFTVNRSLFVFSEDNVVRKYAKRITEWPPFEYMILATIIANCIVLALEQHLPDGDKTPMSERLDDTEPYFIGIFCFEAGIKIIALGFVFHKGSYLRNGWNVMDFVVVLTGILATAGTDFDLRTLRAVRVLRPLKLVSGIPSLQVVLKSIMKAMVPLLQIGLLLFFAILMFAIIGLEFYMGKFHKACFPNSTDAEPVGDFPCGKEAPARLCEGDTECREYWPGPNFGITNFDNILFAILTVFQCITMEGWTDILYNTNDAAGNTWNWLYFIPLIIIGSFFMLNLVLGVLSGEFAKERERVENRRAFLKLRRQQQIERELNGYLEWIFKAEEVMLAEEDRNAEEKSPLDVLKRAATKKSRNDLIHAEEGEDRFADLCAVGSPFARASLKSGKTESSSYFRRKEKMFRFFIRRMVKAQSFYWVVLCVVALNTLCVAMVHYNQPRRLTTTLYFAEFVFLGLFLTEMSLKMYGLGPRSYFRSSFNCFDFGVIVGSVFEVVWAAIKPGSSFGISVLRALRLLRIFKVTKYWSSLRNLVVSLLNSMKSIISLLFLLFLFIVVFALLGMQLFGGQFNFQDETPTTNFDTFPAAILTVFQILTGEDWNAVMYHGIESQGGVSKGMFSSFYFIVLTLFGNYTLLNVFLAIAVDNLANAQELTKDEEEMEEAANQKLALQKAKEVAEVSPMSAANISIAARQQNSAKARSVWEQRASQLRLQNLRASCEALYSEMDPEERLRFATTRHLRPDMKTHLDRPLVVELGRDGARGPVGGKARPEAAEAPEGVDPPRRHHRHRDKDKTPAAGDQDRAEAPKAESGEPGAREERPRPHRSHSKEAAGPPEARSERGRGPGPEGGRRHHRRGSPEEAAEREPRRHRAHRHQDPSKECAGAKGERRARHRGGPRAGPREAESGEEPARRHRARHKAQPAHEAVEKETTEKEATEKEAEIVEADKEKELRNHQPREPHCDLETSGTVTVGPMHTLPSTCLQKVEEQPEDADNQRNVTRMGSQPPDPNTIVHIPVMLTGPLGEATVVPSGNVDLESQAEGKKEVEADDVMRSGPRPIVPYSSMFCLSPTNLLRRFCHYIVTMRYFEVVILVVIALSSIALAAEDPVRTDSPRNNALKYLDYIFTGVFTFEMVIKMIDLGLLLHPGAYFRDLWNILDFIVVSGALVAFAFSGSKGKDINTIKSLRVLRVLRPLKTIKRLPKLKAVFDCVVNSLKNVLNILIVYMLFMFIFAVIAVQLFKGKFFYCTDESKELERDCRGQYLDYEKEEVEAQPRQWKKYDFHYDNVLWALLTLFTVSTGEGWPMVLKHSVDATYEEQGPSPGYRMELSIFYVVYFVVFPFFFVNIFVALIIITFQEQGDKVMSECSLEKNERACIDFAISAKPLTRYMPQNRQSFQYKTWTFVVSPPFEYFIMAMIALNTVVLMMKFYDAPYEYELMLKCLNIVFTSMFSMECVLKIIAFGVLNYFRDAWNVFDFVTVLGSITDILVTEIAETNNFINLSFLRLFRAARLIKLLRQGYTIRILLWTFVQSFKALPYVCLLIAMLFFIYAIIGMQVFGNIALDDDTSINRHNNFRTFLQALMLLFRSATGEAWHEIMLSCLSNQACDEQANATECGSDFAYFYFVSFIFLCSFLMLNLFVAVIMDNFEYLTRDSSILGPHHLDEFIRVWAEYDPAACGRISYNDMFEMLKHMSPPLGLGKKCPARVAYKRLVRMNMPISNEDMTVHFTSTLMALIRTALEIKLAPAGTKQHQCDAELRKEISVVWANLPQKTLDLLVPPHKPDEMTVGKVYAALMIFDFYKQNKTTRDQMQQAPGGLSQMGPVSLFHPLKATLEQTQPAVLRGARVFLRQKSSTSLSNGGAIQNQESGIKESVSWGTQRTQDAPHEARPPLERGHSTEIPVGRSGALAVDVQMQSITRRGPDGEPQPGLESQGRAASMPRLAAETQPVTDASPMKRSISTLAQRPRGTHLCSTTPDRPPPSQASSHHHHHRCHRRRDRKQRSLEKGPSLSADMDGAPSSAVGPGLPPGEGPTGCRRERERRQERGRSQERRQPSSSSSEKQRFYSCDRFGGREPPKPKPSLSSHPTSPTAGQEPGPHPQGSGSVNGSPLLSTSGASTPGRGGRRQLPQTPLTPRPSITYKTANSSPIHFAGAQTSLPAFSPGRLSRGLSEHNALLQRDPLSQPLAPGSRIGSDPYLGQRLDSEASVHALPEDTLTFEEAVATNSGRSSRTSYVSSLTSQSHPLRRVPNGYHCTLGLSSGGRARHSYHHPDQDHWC
T3 sequence (Q02410 whole entry): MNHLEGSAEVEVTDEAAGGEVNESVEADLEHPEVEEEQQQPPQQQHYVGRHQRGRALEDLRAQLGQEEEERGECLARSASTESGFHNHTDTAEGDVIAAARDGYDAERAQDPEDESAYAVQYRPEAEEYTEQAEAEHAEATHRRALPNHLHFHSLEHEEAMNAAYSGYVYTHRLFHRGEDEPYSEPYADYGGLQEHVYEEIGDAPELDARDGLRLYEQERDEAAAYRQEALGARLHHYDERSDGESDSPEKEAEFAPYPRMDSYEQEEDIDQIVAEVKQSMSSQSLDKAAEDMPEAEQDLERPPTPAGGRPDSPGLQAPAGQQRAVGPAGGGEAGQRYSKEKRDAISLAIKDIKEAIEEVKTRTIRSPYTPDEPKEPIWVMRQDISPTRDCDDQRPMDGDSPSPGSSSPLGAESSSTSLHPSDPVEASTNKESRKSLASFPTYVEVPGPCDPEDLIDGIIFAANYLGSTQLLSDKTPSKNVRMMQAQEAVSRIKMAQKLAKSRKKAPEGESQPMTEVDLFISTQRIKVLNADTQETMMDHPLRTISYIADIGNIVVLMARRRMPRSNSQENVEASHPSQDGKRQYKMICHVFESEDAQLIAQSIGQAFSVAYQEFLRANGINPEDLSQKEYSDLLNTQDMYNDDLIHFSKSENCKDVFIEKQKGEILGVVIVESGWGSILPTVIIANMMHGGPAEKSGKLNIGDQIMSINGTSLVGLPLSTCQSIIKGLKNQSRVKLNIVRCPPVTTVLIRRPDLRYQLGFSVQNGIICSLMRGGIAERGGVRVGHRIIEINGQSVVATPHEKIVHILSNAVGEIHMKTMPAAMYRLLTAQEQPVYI
T1 sequence (P11940 whole entry, the tested form may be a part): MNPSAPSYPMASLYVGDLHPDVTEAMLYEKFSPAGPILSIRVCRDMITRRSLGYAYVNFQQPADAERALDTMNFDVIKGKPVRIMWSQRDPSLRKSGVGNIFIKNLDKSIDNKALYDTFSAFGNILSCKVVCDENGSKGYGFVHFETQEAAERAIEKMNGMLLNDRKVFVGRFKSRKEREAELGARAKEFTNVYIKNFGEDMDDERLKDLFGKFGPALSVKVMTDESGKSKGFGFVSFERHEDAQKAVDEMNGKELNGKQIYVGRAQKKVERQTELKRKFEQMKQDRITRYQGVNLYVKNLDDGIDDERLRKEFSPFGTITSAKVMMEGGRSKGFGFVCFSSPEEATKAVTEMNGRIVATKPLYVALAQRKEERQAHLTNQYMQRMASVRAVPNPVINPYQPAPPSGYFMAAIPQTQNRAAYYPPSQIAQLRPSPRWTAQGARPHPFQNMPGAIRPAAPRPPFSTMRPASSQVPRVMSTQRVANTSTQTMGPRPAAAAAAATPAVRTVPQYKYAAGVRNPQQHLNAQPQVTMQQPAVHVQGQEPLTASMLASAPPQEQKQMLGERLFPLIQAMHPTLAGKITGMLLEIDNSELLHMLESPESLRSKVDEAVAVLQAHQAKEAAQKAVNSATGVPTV
Large T antigen, sequence (P03070 whole entry): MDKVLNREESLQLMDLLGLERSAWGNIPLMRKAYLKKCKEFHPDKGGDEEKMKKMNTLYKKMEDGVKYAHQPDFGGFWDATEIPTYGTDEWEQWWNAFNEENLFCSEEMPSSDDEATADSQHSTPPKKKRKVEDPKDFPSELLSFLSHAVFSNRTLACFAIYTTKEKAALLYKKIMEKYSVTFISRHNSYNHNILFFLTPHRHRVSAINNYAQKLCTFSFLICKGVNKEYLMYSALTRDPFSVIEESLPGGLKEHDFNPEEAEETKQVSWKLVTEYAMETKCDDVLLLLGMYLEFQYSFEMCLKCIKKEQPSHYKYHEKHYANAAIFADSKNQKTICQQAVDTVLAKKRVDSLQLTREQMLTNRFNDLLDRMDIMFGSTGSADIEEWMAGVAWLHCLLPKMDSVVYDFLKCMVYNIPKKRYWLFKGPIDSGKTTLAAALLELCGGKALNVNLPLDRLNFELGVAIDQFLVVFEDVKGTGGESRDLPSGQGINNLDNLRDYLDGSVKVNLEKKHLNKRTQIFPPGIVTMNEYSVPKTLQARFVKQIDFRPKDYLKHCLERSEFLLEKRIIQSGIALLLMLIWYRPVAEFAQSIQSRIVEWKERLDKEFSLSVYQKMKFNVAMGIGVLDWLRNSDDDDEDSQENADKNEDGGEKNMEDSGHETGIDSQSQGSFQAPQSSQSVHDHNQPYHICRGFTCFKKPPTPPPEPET
Protein Rev, sequence (P04618 whole entry): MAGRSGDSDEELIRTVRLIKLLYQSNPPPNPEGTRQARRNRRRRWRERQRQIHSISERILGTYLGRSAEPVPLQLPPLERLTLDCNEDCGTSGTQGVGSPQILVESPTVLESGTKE
Female germline-specific tumor suppressor gld-1, sequence (Q17339 whole entry): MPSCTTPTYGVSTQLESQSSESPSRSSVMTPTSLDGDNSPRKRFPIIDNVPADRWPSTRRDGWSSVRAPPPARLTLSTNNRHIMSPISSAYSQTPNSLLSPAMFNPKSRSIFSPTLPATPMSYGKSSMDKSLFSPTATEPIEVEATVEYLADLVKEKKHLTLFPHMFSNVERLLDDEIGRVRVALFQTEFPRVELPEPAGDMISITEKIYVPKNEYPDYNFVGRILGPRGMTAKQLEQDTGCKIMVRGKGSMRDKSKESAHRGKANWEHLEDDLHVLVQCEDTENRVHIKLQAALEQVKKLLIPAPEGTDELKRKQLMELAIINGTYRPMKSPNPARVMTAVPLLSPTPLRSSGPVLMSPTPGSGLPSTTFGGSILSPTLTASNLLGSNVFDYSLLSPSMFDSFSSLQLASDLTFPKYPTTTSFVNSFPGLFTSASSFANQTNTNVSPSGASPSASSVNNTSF

On to `CCOC(=O)c1cc2c(ccn2C)n1CC(=O)N(Cc1ccccc1)c1ccccc1`, for which the IC50 was > 6.62 µM (active) in assay [1], > 75.4 µM (not active) against Protein Rev, > 66 µM (inactive) in assay [2] and > 66 µM (inactive) in assay [3].
Usually AC50 stands for the concentration giving half of the maximal activity seen. As for `COc1cc(/C=N/NC(=O)c2cccs2)ccc1O`, the IC50 on Large T antigen is 5.62 µM (active). For the same compound, in assay [4], the AC50 is 1.65 µM (active).
By EC50 is commonly meant the concentration needed to bring the measured effect to its halfway point. Take `Cc1nc(N2CCN(C(=O)COc3ccccc3)CC2)c2c(C)c(C)sc2n1`: the IC50 in the assay with HEK293 [5] is 5.95 µM (active); in the assay with HEK293 [6], 11.9 µM (active); with HEK293 [7] it was 5.32 µM (active); with HEK293 [9], > 20 µM (inactive). The EC50 is 5.68 µM (active) in the assay on HEK293 [8] and 7.34 µM (active) in assay [10].
With `CC(C)CC1=NN2C(=N)/C(=C\c3coc4ccccc4c3=O)C(=O)N=C2S1`, the IC50 at Large T antigen was 18.3 µM (active).
As to `O=C(Cn1sc2ccccc2c1=O)Nc1cccc(F)c1`, the IC50 at Hexokinase was 4.78 µM (active).
On to `FC(F)(F)c1cnc(Oc2ccc(-c3nnco3)cc2)c(Cl)c1`, for which the IC50 on Coagulation factor XII is > 50 µM (inactive).
Regarding `O=C(/C=C/c1cccc(Br)c1)c1ccc2c(c1)OCO2`, the EC50 in assay [11] is 4.03 µM (active).
For the compound `COc1ccccc1N1CCN(C(=O)c2cc(-c3ccco3)nc3ccccc23)CC1`, the IC50 in assay [12] is > 56.8 µM (inactive).
Take `Cc1ccc(CNc2ccc3c(c2)OCO3)cc1`: the EC50 in [13] was > 60 µM (not active); in assay [14] it was 1.52 µM (active). Besides, the IC50 at Bcl-2-like protein 10 was > 3.13 µM (inactive).
On to `Cc1cc(N2CCOCC2)ccc1/C=C\[N+](=O)[O-]`, for which the EC50 in assay [15] is 22.4 µM (inactive). The IC50 was > 67.5 µM (inactive) in assay [16] and 4.34 µM (active) in assay [18]. Besides, the AC50 in [17] was 22.5 µM (active).
Take `COC(=O)c1ccc(OC(=O)c2ccco2)cc1`: in assay [19], the AC50 was 1.99 µM (active).
With `Cc1c(O)cc2c(c1O)C(=O)CC(c1ccc(O)cc1)O2` (stereo not given), the IC50 in [20] is > 50 µM (inactive); in [21] it was 3.94 µM (active); in assay [22], 4.74 µM (active); in assay [23] it was 13.1 µM (active).
Consider `COc1ccc(NC(=O)Cn2sc3ccccc3c2=O)cc1`, for which the IC50 at Hexokinase is 5.63 µM (active).
Consider `CCN(c1ccccc1)S(=O)(=O)c1ccc(C(=O)N(CCN(C)C)c2nc3c(F)cc(F)cc3s2)cc1`, for which, in [11], the EC50 was > 32 µM (inactive).
`CCNS(=O)(=O)c1ccc(NC(=S)NC2CCCCC2)cc1`: in assay [24], the IC50 is > 100 µM (inactive).
For `COc1ccc(NC(=O)Cc2ccccc2)cn1`, the values for the IC50 (in [1]; against Protein Rev) were 15.1 µM (inactive) and > 25.2 µM (not active), respectively.
Take `O=CNC1(c2ccccc2)CCCCC1`: the AC50 in [19] was 1.96 µM (active).

Values taken from ChEMBL document CHEMBL1201862, “PubChem BioAssay data set” (2004).
